The structures appear in SMILES notation.

The target of the first experiment is T1, human 5HT1F (Homo sapiens, UniProt P30939).
T1 construct: expressed in transfected cells
T1 sequence (P30939 1-366): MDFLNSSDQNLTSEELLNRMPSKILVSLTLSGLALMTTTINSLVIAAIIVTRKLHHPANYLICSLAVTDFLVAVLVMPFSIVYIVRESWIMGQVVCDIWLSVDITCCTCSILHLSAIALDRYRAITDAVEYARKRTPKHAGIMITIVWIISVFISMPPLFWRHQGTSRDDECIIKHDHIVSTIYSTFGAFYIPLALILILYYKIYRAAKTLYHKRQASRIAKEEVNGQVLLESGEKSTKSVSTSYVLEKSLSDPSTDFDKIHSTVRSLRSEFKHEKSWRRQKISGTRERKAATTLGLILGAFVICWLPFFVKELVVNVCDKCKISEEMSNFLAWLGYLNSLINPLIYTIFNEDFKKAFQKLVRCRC
The experiment is described as follows: Radioligand binding, 5HT1F receptor ([3H]-serotonin). The note with it: Table 7; read-out: h5HT1F Ki. The procedure:
Human 5HT1B, 5HT1D, 5HT1E, 5HT1F, and 5HT7 Receptors: The cell lysates of LM(tk-) clonal cell line stably transfected with the genes encoding each of these 5HT receptor-subtypes were prepared as described above. Cell membranes were suspended in 50mM Tris-HCl buffer (pH 7.4 at 37°C) containing 10 mM MgCl2, 0.2 mM EDTA, 10 µM pargyline, and 0.1% ascorbate. […] Nonspecific binding was determined in the presence of 10 µM serotonin. The bound radioligand was separated by filtration through GF/B filters using a cell harvester.
(§1) Binding data were analyzed using nonlinear regression and statistical techniques available in the GraphPAD Prism package (San Diego, CA). Enzymatic assay data were derived from a standard curve of reference compound data.
As a reminder, the Ki is the equilibrium dissociation constant of an inhibitor or competing ligand from its target. For `Cc1ccc(Nc2cc(N3CCCCC3)nc(N(C)CCc3ccccc3)n2)cc1` [Example 22], the Ki was determined as 5.77 µM.
Turning to `Cc1ccc(Nc2cc(N3CCCCC3)nc(N(C)CCc3c[nH]c4ccccc34)n2)cc1` [Example 11], the Ki amounted to 1.78 µM.
Same read-out and setting: next, `CN(CCc1c[nH]c2ccccc12)c1nc(Nc2ccc(F)c(F)c2)cc(N2CCCCC2)n1` [Example 15]: 4.19 µM; `Cc1ccc(Nc2cc(N(C)C)nc(N(C)CCc3c[nH]c4ccccc34)n2)cc1` [Example 77]: 3.24 µM.
On to `O=C1C(=Nc2cccc(Cl)c2)c2ccccc2N1c1ccccc1` [Example 94, 3-[(3-CHLOROPHENYL)IMINO]-1-PHENYL-1,3-DIHYDRO-2H-INDOL-2-ONE], for which the Ki was determined as 5.68 µM.

The same experiment, now with this note: Table 8; Ki h5HT1F divided by Ki hGAL3.
Regarding `COC[C@@H]1[C@@H](c2ccccc2)OCCN1c1nc(Nc2ccc(C)cc2)cc(N2CCCCC2)n1` [Example 49], the “selectivity ratio h5HT1F” value is >30.
As to `Cc1ccc(Nc2cc(N3CCCCC3)nc(N(C)CCc3ccccc3)n2)cc1` [Example 22], the “selectivity ratio h5HT1F” value is given as >100.
Same read-out and setting: next, `Cc1ccc(Nc2cc(N3CCCCC3)nc(N(C)CCc3c[nH]c4ccccc34)n2)cc1` [Example 11]: 20.
Same read-out and setting: then `CN(CCc1c[nH]c2ccccc12)c1nc(Nc2ccc(F)c(F)c2)cc(N2CCCCC2)n1` [Example 15], with >30; and `Cc1ccc(Nc2cc(N(C)C)nc(N(C)CCc3c[nH]c4ccccc34)n2)cc1` [Example 77], with >30; and `O=C1C(=Nc2cccc(Cl)c2)c2ccccc2N1c1ccccc1` [Example 94, 3-[(3-CHLOROPHENYL)IMINO]-1-PHENYL-1,3-DIHYDRO-2H-INDOL-2-ONE], with >100.
For the molecule `O=C1C(=Nc2cccc(C(F)(F)F)c2)c2ccccc2N1c1ccccc1` [Example 92, 1-PHENYL-3- [[3-(TRIFLUOROMETHYL)PHENYL]IMINO]-1,3-DIHYDRO-2H-INDOL-2-ONE], the “selectivity ratio h5HT1F” value is reported as >100.

Still in this experiment, the particulars now being: read-out: h5HT1F Ki; Table 7.
Regarding `COC[C@@H]1[C@@H](c2ccccc2)OCCN1c1nc(Nc2ccc(C)cc2)cc(N2CCCCC2)n1` [Example 49], the Ki was 8.89 µM.

In a further experiment the target is T2, human α1D adrenergic receptor (Homo sapiens, UniProt P25100).
T2 construct: expressed in transfected cells
T2 sequence (P25100 1-572): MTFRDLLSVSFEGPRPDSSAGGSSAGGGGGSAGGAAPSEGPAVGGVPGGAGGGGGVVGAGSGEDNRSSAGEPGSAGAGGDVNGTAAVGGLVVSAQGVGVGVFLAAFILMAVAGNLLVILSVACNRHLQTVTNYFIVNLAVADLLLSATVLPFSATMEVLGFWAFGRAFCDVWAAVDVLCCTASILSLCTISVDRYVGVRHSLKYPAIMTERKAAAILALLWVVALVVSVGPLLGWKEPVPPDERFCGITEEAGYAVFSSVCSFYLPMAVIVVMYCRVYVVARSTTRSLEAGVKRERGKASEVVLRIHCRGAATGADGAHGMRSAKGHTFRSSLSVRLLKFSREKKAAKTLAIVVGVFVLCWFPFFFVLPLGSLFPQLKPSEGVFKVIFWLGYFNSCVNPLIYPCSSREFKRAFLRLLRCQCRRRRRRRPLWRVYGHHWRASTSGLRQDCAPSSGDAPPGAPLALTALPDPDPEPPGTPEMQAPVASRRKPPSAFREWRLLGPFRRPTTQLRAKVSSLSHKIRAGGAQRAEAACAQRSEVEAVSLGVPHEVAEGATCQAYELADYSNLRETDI
Kind of experiment: Radioligand binding, α1D adrenergic receptor. The conditions noted are these: Table 9; read-out: hα1D Ki.
Excerpt: (§2) Other receptors: Cell membranes expressing human dopamine D1, D2, D4 and rat D3 receptors were purchased through BioSignal, Inc. (Montreal, Canada). Binding assays using the histamine H1 receptor; dopamine receptors; and α1A, α1E, and α2 adrenergic receptors may be carried out according to the procedures described in U.S. Patent No. 5,780,485, the disclosure of which is hereby incorporated by reference in its entirety into this application. Binding assays using the dopamine D5 receptor may be carried out according to the procedures described in U.S. Patent No. 5,882,855, the disclosure of which is hereby incorporated by reference in its entirety into this application. Binding assays for the human α1D adrenergic receptor may be carried out according to the procedures described in U.S. Patent No. 6,156,518, the disclosure of which is hereby incorporated by reference in its entirety into this application.
as §1
In the case of `Cc1ccc(Nc2cc(N3CCCCC3)nc(N(C)CCc3ccccc3)n2)cc1` [Example 22], the Ki came out at 0.368 µM.
The same measure, in the same setting: next, `Cc1ccc(Nc2cc(N3CCCCC3)nc(N(C)CCc3c[nH]c4ccccc34)n2)cc1` [Example 11]: 0.264 µM; `CN(CCc1c[nH]c2ccccc12)c1nc(Nc2ccc(F)c(F)c2)cc(N2CCCCC2)n1` [Example 15]: 0.48 µM.
Still for that read-out and setting: then `Cc1ccc(Nc2cc(N(C)C)nc(N(C)CCc3c[nH]c4ccccc34)n2)cc1` [Example 77], with 0.217 µM; and `O=C1C(=Nc2cccc(Cl)c2)c2ccccc2N1c1ccccc1` [Example 94, 3-[(3-CHLOROPHENYL)IMINO]-1-PHENYL-1,3-DIHYDRO-2H-INDOL-2-ONE], with 4.03 µM.

Staying with this experiment, now noted: Table 10; Ki hα1D divided by Ki hGAL3.
Regarding `COC[C@@H]1[C@@H](c2ccccc2)OCCN1c1nc(Nc2ccc(C)cc2)cc(N2CCCCC2)n1` [Example 49], the “selectivity ratio hα1D” value stood at 3.
On to `Cc1ccc(Nc2cc(N3CCCCC3)nc(N(C)CCc3ccccc3)n2)cc1` [Example 22], for which the “selectivity ratio hα1D” value is 13.
Still for that read-out and setting: then `Cc1ccc(Nc2cc(N3CCCCC3)nc(N(C)CCc3c[nH]c4ccccc34)n2)cc1` [Example 11], with 3; and `CN(CCc1c[nH]c2ccccc12)c1nc(Nc2ccc(F)c(F)c2)cc(N2CCCCC2)n1` [Example 15], with 7; and `Cc1ccc(Nc2cc(N(C)C)nc(N(C)CCc3c[nH]c4ccccc34)n2)cc1` [Example 77], with 3.
For `O=C1C(=Nc2cccc(Cl)c2)c2ccccc2N1c1ccccc1` [Example 94, 3-[(3-CHLOROPHENYL)IMINO]-1-PHENYL-1,3-DIHYDRO-2H-INDOL-2-ONE], the “selectivity ratio hα1D” value is recorded as >30.
On to `O=C1C(=Nc2cccc(C(F)(F)F)c2)c2ccccc2N1c1ccccc1` [Example 92, 1-PHENYL-3- [[3-(TRIFLUOROMETHYL)PHENYL]IMINO]-1,3-DIHYDRO-2H-INDOL-2-ONE], for which the “selectivity ratio hα1D” value is >100.

Staying with this experiment, now noted: read-out: hα1D Ki; Table 9.
As for `COC[C@@H]1[C@@H](c2ccccc2)OCCN1c1nc(Nc2ccc(C)cc2)cc(N2CCCCC2)n1` [Example 49], the Ki turned out to be 0.678 µM.

The next experiment deals with T3, human α2C adrenoceptor (Homo sapiens, UniProt P18825).
T3 construct: expressed in transfected cells
T3 sequence (P18825 1-462): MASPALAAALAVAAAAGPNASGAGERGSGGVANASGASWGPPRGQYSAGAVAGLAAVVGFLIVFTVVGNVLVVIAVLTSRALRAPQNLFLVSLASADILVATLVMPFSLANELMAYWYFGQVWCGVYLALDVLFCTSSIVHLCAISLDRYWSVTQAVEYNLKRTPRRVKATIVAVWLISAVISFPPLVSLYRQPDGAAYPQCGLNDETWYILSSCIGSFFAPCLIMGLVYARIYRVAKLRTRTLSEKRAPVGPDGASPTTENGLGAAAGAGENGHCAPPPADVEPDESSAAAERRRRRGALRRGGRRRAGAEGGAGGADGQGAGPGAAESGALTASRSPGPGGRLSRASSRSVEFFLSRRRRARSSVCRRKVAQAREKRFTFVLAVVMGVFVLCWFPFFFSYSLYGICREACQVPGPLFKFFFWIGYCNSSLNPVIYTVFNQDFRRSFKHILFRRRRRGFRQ
Kind of experiment: Radioligand binding, α2C adrenergic receptor. The conditions noted are these: Table 9; read-out: hα2C Ki.
Excerpt: as §2, §1
Take `Cc1ccc(Nc2cc(N3CCCCC3)nc(N(C)CCc3ccccc3)n2)cc1` [Example 22]: the Ki worked out at 2.74 µM.
Still for that read-out and setting: next, `Cc1ccc(Nc2cc(N3CCCCC3)nc(N(C)CCc3c[nH]c4ccccc34)n2)cc1` [Example 11]: 3 µM; `CN(CCc1c[nH]c2ccccc12)c1nc(Nc2ccc(F)c(F)c2)cc(N2CCCCC2)n1` [Example 15]: 8.2 µM; `Cc1ccc(Nc2cc(N(C)C)nc(N(C)CCc3c[nH]c4ccccc34)n2)cc1` [Example 77]: 0.634 µM.
As to `O=C1C(=Nc2cccc(Cl)c2)c2ccccc2N1c1ccccc1` [Example 94, 3-[(3-CHLOROPHENYL)IMINO]-1-PHENYL-1,3-DIHYDRO-2H-INDOL-2-ONE], the Ki was 47.9 µM.

The same experiment, now with this note: Table 10; Ki hα2C divided by Ki hGAL3.
In the case of `COC[C@@H]1[C@@H](c2ccccc2)OCCN1c1nc(Nc2ccc(C)cc2)cc(N2CCCCC2)n1` [Example 49], the “selectivity ratio hα2C” value was >30.
With `Cc1ccc(Nc2cc(N3CCCCC3)nc(N(C)CCc3ccccc3)n2)cc1` [Example 22], the “selectivity ratio hα2C” value is recorded as >100.
As for `Cc1ccc(Nc2cc(N3CCCCC3)nc(N(C)CCc3c[nH]c4ccccc34)n2)cc1` [Example 11], the “selectivity ratio hα2C” value is reported as >30.
On to `CN(CCc1c[nH]c2ccccc12)c1nc(Nc2ccc(F)c(F)c2)cc(N2CCCCC2)n1` [Example 15], for which the “selectivity ratio hα2C” value is >100.
Still for that read-out and setting: then `Cc1ccc(Nc2cc(N(C)C)nc(N(C)CCc3c[nH]c4ccccc34)n2)cc1` [Example 77], with 8.
On the same count and under the same terms, then `O=C1C(=Nc2cccc(Cl)c2)c2ccccc2N1c1ccccc1` [Example 94, 3-[(3-CHLOROPHENYL)IMINO]-1-PHENYL-1,3-DIHYDRO-2H-INDOL-2-ONE], with >100.
On the same count and under the same terms, then `O=C1C(=Nc2cccc(C(F)(F)F)c2)c2ccccc2N1c1ccccc1` [Example 92, 1-PHENYL-3- [[3-(TRIFLUOROMETHYL)PHENYL]IMINO]-1,3-DIHYDRO-2H-INDOL-2-ONE], with >100.

Staying with this experiment, now noted: read-out: hα2C Ki; Table 9.
As to `COC[C@@H]1[C@@H](c2ccccc2)OCCN1c1nc(Nc2ccc(C)cc2)cc(N2CCCCC2)n1` [Example 49], the Ki was determined as 9.24 µM.

These data come from EP2140864A2 (H. Lundbeck A/S, priority 2001, dated 2002).
